Data as given in PubChem BioAssay (NCI).
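Briefly, cells in 96-well plates were exposed to five compound concentrations for 48 h, and endpoints were estimated by linear interpolation. The concentration for 50% growth inhibition is given as GI50. The concentration for full growth arrest is given as TGI.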

Assays:
Assay in all cases: DTP human tumour cell line panel, 48 h
[1] = system: SF-295 CNS
[2] = system: SK-MEL-28 melanoma
[3] = system: IGROV1 ovarian
[4] = system: UACC-62 melanoma
[5] = system: HOP-62 NSCLC
[6] = system: HOP-92 NSCLC
[7] = system: SK-MEL-2 melanoma
[8] = system: SK-MEL-5 melanoma
[9] = system: OVCAR-3 ovarian
[10] = system: HCC-2998 colon

Row | Structure (SMILES) | TGI [1] | TGI [2] | TGI [3] | TGI [4] | TGI [5] | TGI [6] | TGI [7] | TGI [8] | TGI [9] | TGI [10] | GI50 [1] | GI50 [2] | GI50 [3] | GI50 [4] | GI50 [5] | GI50 [6] | GI50 [7] | GI50 [8] | GI50 [9] | GI50 [10]
1 | CC1NC(=O)C(C)C(c2ccccc2)N(N=O)C1c1ccccc1 (stereo not given) | > 100 µM | > 100 µM | > 100 µM | > 100 µM | > 100 µM | > 100 µM | > 100 µM | > 100 µM | > 100 µM | > 100 µM |  |  |  |  |  |  |  |  |  | 
2 | O=C(CC1Sc2ccccc2NC1=O)Nc1ccccc1[N+](=O)[O-] (stereo not given) | > 100 µM | > 100 µM | > 100 µM | > 100 µM | > 100 µM | > 100 µM | > 100 µM | > 100 µM | > 100 µM | > 100 µM |  |  |  |  |  |  |  |  |  | 
3 | CO[C@](C(=O)OC[C@H]1[C@@H](COC(C)=O)[C@@H]2O[C@H]1c1cc3c(cc12)OCO3)(c1ccccc1)C(F)(F)F | 58.6 µM | > 100 µM | 81.1 µM | > 100 µM | 73.6 µM | > 100 µM | 91.3 µM | > 100 µM | > 100 µM | 71.9 µM |  |  |  |  |  |  |  |  |  | 
4 | CCOC(=O)c1csc(NC(=O)CN2CCCC2)n1 | > 100 µM | > 100 µM | > 100 µM | > 100 µM | > 100 µM | > 100 µM | > 100 µM | > 100 µM | > 100 µM | > 100 µM |  |  |  |  |  |  |  |  |  | 
5 | CCCCCCOc1ccc(/C=N/Nc2cc(C)nc3ccc(Cl)cc23)cc1 | 3.24 µM | 3.18 µM | 3.53 µM | 3.27 µM | 3.08 µM | 3.07 µM | 3.24 µM | 3.06 µM | 3.74 µM | 3.45 µM | 1.73 µM | 1.76 µM | 1.79 µM | 1.78 µM | 1.55 µM | 1.42 µM | 1.72 µM | 1.69 µM | 2.05 µM | 1.93 µM
6 | Cc1ccc(C(=O)OC(C(=O)O)C(OC(=O)c2ccc(C)cc2)C(=O)O)cc1 (stereo not given) (tested in a mixture with another compound) | 16.7 µM | 19.7 µM | 26.5 µM | 19.3 µM | 29.2 µM | 11.8 µM | 23.5 µM | 7.72 µM | 22.4 µM | 10.1 µM |  |  |  |  |  |  |  |  |  | 
